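All cell lines were grown in 96-well plates and treated with compound for 48 hours. Abbreviation: GI50, concentration required for 50% inhibition of growth.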 The source made the active and inactive calls. No stated cut-off is given here; in the data, active = GI50 up to about 1.1 µM and inactive = higher.
Legend:
Assay in all cases: inhibition of tumour cell growth, NCI panel, 48 h
SK-MEL-5 = tested on: SK-MEL-5
TK-10 = tested on: TK-10
NCI-H23 = tested on: NCI-H23
ACHN = tested on: ACHN
HCC 2998 = tested on: HCC 2998
CCRF-CEM = tested on: CCRF-CEM
MCF7 = tested on: MCF7
NCI-H460 = tested on: NCI-H460
RPMI-8226 = tested on: RPMI-8226
UACC-257 = tested on: UACC-257
786-0 = tested on: 786-0
SF-295 = tested on: SF-295
SR = tested on: SR
K562 = tested on: K562
UO-31 = tested on: UO-31
CAKI-1 = tested on: CAKI-1
MDA-MB-435 = tested on: MDA-MB-435
HT-29 = tested on: HT-29
HCT-116 = tested on: HCT-116
HL-60 = tested on: HL-60
Malme-3M = tested on: Malme-3M
EKVX = tested on: EKVX
KM12 = tested on: KM12
A549 = tested on: A549
OVCAR-4 = tested on: OVCAR-4
HCT-15 = tested on: HCT-15
PC-3 = tested on: PC-3
MOLT-4 = tested on: MOLT-4
SK-MEL-28 = tested on: SK-MEL-28
MDA-N = tested on: MDA-N
NCI/ADR-RES = tested on: NCI/ADR-RES
SW-620 = tested on: SW-620
M14 = tested on: M14
SNB-19 = tested on: SNB-19
SK-MEL-2 = tested on: SK-MEL-2
OVCAR-3 = tested on: OVCAR-3
OVCAR-8 = tested on: OVCAR-8
BT-549 = tested on: BT-549
HOP-92 = tested on: HOP-92
OVCAR-5 = tested on: OVCAR-5
COLO 205 = tested on: COLO 205
DU-145 = tested on: DU-145
U-251 = tested on: U-251
LOX IMVI = tested on: LOX IMVI
MDA-MB-231 = tested on: MDA-MB-231
HOP-62 = tested on: HOP-62
SN12C = tested on: SN12C
IGROV-1 = tested on: IGROV-1
T47D = tested on: T47D
SF-268 = tested on: SF-268
SF-539 = tested on: SF-539
NCI-H522 = tested on: NCI-H522
SNB-75 = tested on: SNB-75
A498 = tested on: A498
SK-OV-3 = tested on: SK-OV-3
UACC-62 = tested on: UACC-62
NCI-H226 = tested on: NCI-H226
Hs-578T = tested on: Hs-578T
RXF 393 = tested on: RXF 393

Measured: GI50

O=S1(=O)OCCOS(=O)(=O)C1S(=O)(=O)c1ccc2ccccc2c1
> 100 µM: HCT-15
inactive: SK-MEL-5 > 100 µM | TK-10 > 100 µM | NCI-H23 > 100 µM | ACHN > 100 µM | HCC 2998 > 100 µM | CCRF-CEM > 100 µM | MCF7 > 100 µM | NCI-H460 > 100 µM | RPMI-8226 > 100 µM | UACC-257 > 100 µM | 786-0 > 100 µM | SF-295 > 100 µM | SR > 100 µM | K562 > 100 µM | UO-31 > 100 µM | CAKI-1 > 100 µM | MDA-MB-435 > 100 µM | HT-29 > 100 µM | HCT-116 > 100 µM | HL-60 > 100 µM | Malme-3M > 100 µM | EKVX > 100 µM | KM12 > 100 µM | A549 > 100 µM | OVCAR-4 > 100 µM | PC-3 > 100 µM | MOLT-4 > 100 µM | SK-MEL-28 > 100 µM | MDA-N > 100 µM | NCI/ADR-RES > 100 µM | SW-620 > 100 µM | M14 > 100 µM | SNB-19 > 100 µM | SK-MEL-2 > 100 µM | OVCAR-3 > 100 µM | OVCAR-8 > 100 µM | BT-549 > 100 µM | HOP-92 > 100 µM | OVCAR-5 > 100 µM | COLO 205 > 100 µM | DU-145 > 100 µM | U-251 > 100 µM | LOX IMVI > 100 µM | MDA-MB-231 > 100 µM | HOP-62 > 100 µM | SN12C > 100 µM | IGROV-1 > 100 µM

Cc1ccc(S(=O)(=O)NN=C2C(C)(C)CC2(C)C)cc1
inactive: SK-MEL-5 > 100 µM | TK-10 > 100 µM | NCI-H23 > 100 µM | ACHN > 100 µM | HCC 2998 > 100 µM | CCRF-CEM 68.7 µM | MCF7 > 100 µM | NCI-H460 > 100 µM | UACC-257 > 100 µM | 786-0 > 100 µM | T47D > 100 µM | SF-295 > 100 µM | K562 76.2 µM | SF-268 > 100 µM | UO-31 > 100 µM | SF-539 > 100 µM | CAKI-1 > 100 µM | MDA-MB-435 > 100 µM | NCI-H522 > 100 µM | HT-29 > 100 µM | SNB-75 17.3 µM | HCT-116 > 100 µM | A498 > 100 µM | HL-60 > 100 µM | Malme-3M > 100 µM | EKVX > 100 µM | KM12 > 100 µM | A549 > 100 µM | OVCAR-4 > 100 µM | PC-3 > 100 µM | MOLT-4 > 100 µM | SK-MEL-28 > 100 µM | MDA-N > 100 µM | NCI/ADR-RES > 100 µM | SW-620 > 100 µM | M14 > 100 µM | SNB-19 > 100 µM | SK-OV-3 > 100 µM | UACC-62 > 100 µM | SK-MEL-2 > 100 µM | NCI-H226 > 100 µM | OVCAR-3 > 100 µM | OVCAR-8 > 100 µM | HOP-92 > 100 µM | OVCAR-5 > 100 µM | COLO 205 > 100 µM | DU-145 > 100 µM | U-251 > 100 µM | LOX IMVI > 100 µM | Hs-578T > 100 µM | RXF 393 > 100 µM | MDA-MB-231 > 100 µM | HOP-62 > 100 µM | SN12C > 100 µM | IGROV-1 > 100 µM
> 100 µM: HCT-15

CCOC(=O)CN1C(=O)C(=O)N(c2ccc(OC)c3ccccc23)C1=O
> 100 µM: HCT-15
inactive: SK-MEL-5 > 100 µM | TK-10 > 100 µM | NCI-H23 > 100 µM | ACHN > 100 µM | HCC 2998 > 100 µM | CCRF-CEM > 100 µM | MCF7 > 100 µM | RPMI-8226 > 100 µM | UACC-257 > 100 µM | 786-0 > 100 µM | T47D > 100 µM | SF-295 > 100 µM | SR > 100 µM | K562 > 100 µM | SF-268 > 100 µM | UO-31 34.6 µM | SF-539 > 100 µM | CAKI-1 > 100 µM | MDA-MB-435 > 100 µM | NCI-H522 > 100 µM | HT-29 > 100 µM | SNB-75 > 100 µM | HCT-116 > 100 µM | HL-60 > 100 µM | Malme-3M > 100 µM | EKVX > 100 µM | KM12 > 100 µM | A549 > 100 µM | OVCAR-4 > 100 µM | PC-3 > 100 µM | MOLT-4 > 100 µM | SK-MEL-28 > 100 µM | MDA-N > 100 µM | NCI/ADR-RES > 100 µM | SW-620 > 100 µM | M14 > 100 µM | SNB-19 > 100 µM | SK-OV-3 > 100 µM | UACC-62 > 100 µM | SK-MEL-2 > 100 µM | NCI-H226 45.1 µM | OVCAR-3 > 100 µM | OVCAR-8 > 100 µM | BT-549 > 100 µM | OVCAR-5 > 100 µM | COLO 205 > 100 µM | DU-145 > 100 µM | U-251 > 100 µM | LOX IMVI > 100 µM | RXF 393 > 100 µM | HOP-62 68.5 µM | SN12C > 100 µM

From ChEMBL document CHEMBL1201862, “PubChem BioAssay data set” (2004)
